88 compounds from PubChem BioAssay AID2305 (GlaxoSmithKline (GSK), 2010) can be followed below.

This assay concerns P. falciparum 3D7 growth, pLDH absorbance. Description: blood-stage malaria parasite growth potency – strain 3D7, dose response (AID 2305).
For orientation: IC50 means the concentration that gives 50% inhibition. High values mean weaker potency in that assay, low ones greater potency in that assay. Turning to `NC1CCCN(Cc2ccc(-c3cccc(-c4nc5ccccc5[nH]4)c3)cc2)C1` (stereo not drawn), the IC50 was determined as 0.72 µM.

For `COc1ccc2nccc([C@@H](O)CN3CCC(NCc4cc5ccccn5n4)CC3)c2c1`, the 50% inhibitory concentration (IC50) came out at 1.57 µM.

As to `CS(=O)(=O)N(c1ccccc1)c1cc(C(=O)N[C@@H](Cc2ccccc2)[C@H](O)CNC2CC2)cc(N2CCCC2=O)c1`, the IC50 was found to be 0.3 µM.

Turning to `Oc1cccc(-c2nc3ccc(C4=N[C@@H]5CCCC[C@H]5N4)cc3[nH]2)c1`, the IC50 turned out to be 0.53 µM.

On to `CNCCNCc1ccc(-c2ccc(-c3nc4c(C)cccc4[nH]3)s2)cc1`, for which the IC50 was found to be 0.73 µM.

`CCCCCN1CCCCC(NS(=O)(=O)c2ccc(C(=O)Nc3ccc(C(F)(F)F)cc3)cc2)C1` (stereo not drawn) had an IC50 of 0.77 µM.

Turning to `N#Cc1cc(C(=O)c2cc(Cl)ccc2O)cn(-c2cccc(C(F)(F)F)c2)c1=O`, the IC50 came out at 1.13 µM.

`CCC[C@@H]([C@@H](CC1CCCCC1)C(=O)N[C@H](C(=O)Nc1nccs1)[C@H](C)O)N(O)C=O` displayed a half-inhibitory concentration (IC50) of 0.15 µM.

In turn, `CN(C(=O)c1ccc(Br)cc1)c1ccccc1[N+](=O)[O-]` displayed an IC50 of 0.93 µM.

The compound `CC1Cc2ccccc2N1S(=O)(=O)c1cc(OCC(F)(F)F)ccc1OCC(F)(F)F` (stereo not drawn) yielded an IC50 of 0.65 µM.

`NC(N)=Nc1nc(CCCCCCCCc2csc(N=C(N)N)n2)cs1` registered an IC50 of 0.6 µM.

Consider `CN(CC(=O)Nc1ccc(F)cc1)C(=O)c1ccc(-c2ccc(F)cc2)o1`, for which the IC50 is 0.93 µM.

The compound `CCN1CCC(N(Cc2ccc(-c3ccc(C(F)(F)F)cc3)cc2)C(=O)Cn2c(CCc3cccc(F)c3F)cc(=O)c3c2CCCC3)CC1` showed an IC50 of 0.76 µM.

`COc1ccc(NC(=O)Nc2ccc(-c3ccccc3)cc2Cl)cc1N1CCN(C)CC1` gave an IC50 of 0.87 µM.

For `CCN(CC)CCN(Cc1ccc(-c2ccc(C(F)(F)F)cc2)cc1)C(=O)Cn1c(CCc2ccc(F)c(F)c2)nc(=O)c2ccccc21`, the IC50 turned out to be 1.58 µM.

`CCN1CC=C(c2c[nH]c3ccccc23)CC1` gave an IC50 of 1.03 µM.

In turn, `Cc1csc(-c2nc(NCCc3c(C)noc3C)ncc2-c2ccsc2)n1` showed an IC50 of 0.18 µM.

On to `Cc1[nH]c(C)c(-c2ccc(-c3cccc(Cl)c3)nc2)c(=O)c1Cl`, for which the IC50 was determined as 0.19 µM.

In turn, `CC(C)(C)c1ccc(C(=O)Nc2ccc3nc4c(c(N)c3c2)CCCC4)cc1` displayed an IC50 of 0.17 µM.

In the case of `O=C(/C=C/c1ccc(Cl)c(Cl)c1)NC1CCC(CN2CCC(c3nc4ccccc4n3CCCO)CC2)CC1` (stereo not drawn), the IC50 was determined as 0.58 µM.

`CCN(CC)CCN(Cc1ccc(-c2ccc(C(F)(F)F)cc2)cc1)C(=O)Cn1c(CCc2cccc(F)c2F)nc(=O)c2cccnc21`: the IC50 amounted to 0.73 µM.

For the compound `COc1ccc2nccc(N3CCCN(CCNS(=O)(=O)c4ccc5c(c4)NC(=O)CS5)CC3)c2n1`, the 50% inhibitory concentration (IC50) turned out to be 0.82 µM.

In the case of `CN(c1ccc(NC(=O)Nc2cc(C(C)(C)C)on2)cc1)c1ccnc(NCCOC(=O)Nc2cc(C(C)(C)C)on2)n1`, the concentration for half-maximal inhibition (IC50) is 0.75 µM.

`O=C(NC1CCN(Cc2ccccc2)CC1)c1cc(-c2cccnc2)nc2ccc(Cl)cc12` registered an IC50 of 0.76 µM.

For `CC[C@H](NC(=O)c1c(CC2CCN(CC(C)=O)CC2)c(-c2ccccc2)nc2ccccc12)c1ccccc1`, the IC50 was 0.38 µM.

`Clc1nc2ccccn2c1C=Cc1ccc2ccccc2n1`: the IC50 was determined as 0.27 µM.

`CCCc1ccc(S(=O)(=O)NC2CCN(C(=O)Nc3ccc(I)cc3)CC2)cc1` gave an IC50 of 0.87 µM.

The compound `Cc1ccc(Nc2nccc(NCC(O)c3ccc(C(F)(F)F)cc3)n2)cc1` (stereo not drawn) gave an IC50 of 0.49 µM.

In the case of `COc1ccc(CNC2CCN(C)CC2)cc1-c1ccc(S(=O)(=O)NCC2CCCO2)s1` (stereo not drawn), the IC50 worked out at 0.8 µM.

Turning to `CC1(C)CCCC(=Cc2ccc(Br)cc2)C1(O)Cn1ccnc1` (stereo not drawn), the IC50 was 0.79 µM.

For `CCOc1cc(C(=O)N[C@@H](Cc2ccccc2)[C@H](O)CNCc2cc(OC)cc(OC)c2)cc(N2CCCCS2(=O)=O)c1`, the IC50 amounted to 0.52 µM.

`Cc1[nH]c(C)c(-c2ccc(Nc3ccc(C(F)(F)F)cn3)cc2)c(=O)c1Br` yielded an IC50 of 0.03 µM.

Turning to `CCCCCN1CCCC1CNS(=O)(=O)c1cccc(C(=O)Nc2cccc(C(F)(F)F)c2)c1` (stereo not drawn), the IC50 stood at 0.77 µM.

`CC1CN(Cc2csc(Nc3ccccc3)n2)CC(C)O1` (stereo not drawn) yielded an IC50 of 1.02 µM.

As to `O=C(c1cccc(Br)c1)N1CCN(c2ccc([N+](=O)[O-])c(NC3CC3)c2)CC1`, the 50% inhibitory concentration (IC50) came to 0.94 µM.

As to `CCCCCCCCNCCCSCCCNCCCCCCCC`, the IC50 worked out at 1.23 µM.

For the compound `CN(C)CCCNc1ncnc2c1[nH]c1ccc(Cl)cc12`, the IC50 is 0.28 µM.

In turn, `O=C(Nc1cccc(-c2csc(-c3nc4ccccc4[nH]3)c2)c1)c1ccncc1` showed an IC50 of 0.26 µM.

For the compound `O=C(c1ccc(F)cc1)N1CCOC(CCN2CCC(c3ccccc3)CC2)(c2ccc(Cl)c(Cl)c2)C1` (stereo not drawn), the IC50 worked out at 0.75 µM.

Compound `CCN(CC)CCN(Cc1ccc(-c2ccc(C(F)(F)F)cc2)cc1)C(=O)Cn1cc(CCCc2cccc(F)c2F)c(=O)c2ccccc21` registered an IC50 of 1.06 µM.

Regarding `Cc1cccc2[nH]c(-c3ccc(-c4ccc(CNCCNC(=O)c5ccnn5C)cc4)s3)nc12`, the IC50 was found to be 0.31 µM.

For the compound `Cc1[nH]c(C)c(-c2ccc(-c3ccc(Cl)cc3)nc2)c(=O)c1Cl`, the concentration for half-maximal inhibition (IC50) came to 0.11 µM.

Regarding `N#Cc1cccc(NC(=O)C2=C(CCc3ccc4c(c3)OCO4)NC(=O)NC2c2cccc(C#N)c2)c1` (stereo not drawn), the IC50 stood at 0.83 µM.

For `COCCOCCOCCn1ccc2c3c(N)nc(N)nc3ccc21`, the IC50 came out at 0.26 µM.

Compound `COc1c(C2CCN(CCCCNC(=O)c3ccc(-c4ccc(C#N)cc4)nc3)CC2)ccc2c1CCCC2` came in with an IC50 of 0.53 µM.

On to `CCOC(=O)c1ccc(-c2cnc(N)c(-c3nc4c(C)cccc4[nH]3)c2)cc1`, for which the concentration for half-maximal inhibition (IC50) is 0.28 µM.

The compound `Cc1ccc2[nH]c(-c3ccc(C(=O)NC4CCN(Cc5ccccc5)CC4)cc3)nc2c1C` registered an IC50 of 0.73 µM.

Turning to `Clc1ccc2c(NCCc3ccccn3)ccnc2c1`, the IC50 was determined as 0.83 µM.

`COc1ccc(/C=C/C(=O)N2CCc3cc4nccc(N5CCN6CCC[C@H]6C5)c4cc32)cc1` showed an IC50 of 0.64 µM.

Consider `O=C(Nc1cc(C(F)(F)F)cc(C(F)(F)F)c1)Nc1ccc(Cl)c(Cl)c1`, for which the IC50 was found to be 0.24 µM.

Compound `CS(=O)(=O)c1ccc(CNCc2ccc(-c3ccc(-c4nc5ccc(C(F)(F)F)cc5[nH]4)s3)cc2)cc1` registered an IC50 of 0.16 µM.

Compound `COc1cccc(Nc2c(C(N)=O)cnc3ccc(-c4ccccc4)cc23)c1` displayed an IC50 of 0.77 µM.

Consider `Cc1ccc(CN2CCCN(Cc3cccc(NC(=O)c4cc5ccccc5s4)c3)CC2)cc1`, for which the IC50 was 1.19 µM.

Compound `COc1cc(C2=NN(S(=O)(=O)c3c(Cl)cc(Cl)cc3Cl)CCCC2)ccc1Cl` yielded an IC50 of 0.29 µM.

`Cc1cnc(C(=O)Nc2cccc(-c3cccc(-c4nc5c(C)cccc5[nH]4)c3)c2)cn1` had an IC50 of 0.58 µM.

Consider `Oc1ccc2[nH]cc(C3=CCN(CCc4ccccc4)CC3)c2c1`, for which the IC50 was 0.31 µM.

With `C=C(C)COc1ccc(-c2n[nH]c(C(F)(F)F)c2-c2ccccc2OC)c(O)c1`, the IC50 came out at 0.78 µM.

For `Fc1ccc2nc(-c3ccc(-c4ccc(CN5CCN(c6cnccn6)CC5)cc4)s3)[nH]c2c1`, the IC50 was 0.62 µM.

For `CCOc1ccc2nc(C)cc(NN=Cc3cccnc3)c2c1`, the IC50 worked out at 0.15 µM.

For the compound `CCOc1cc(C(=O)N[C@@H](Cc2ccccc2)[C@H](O)CNCc2cc(OC)cc(OC)c2)cc(N2CCCC2=O)c1`, the IC50 is 0.85 µM.

The compound `O=C(NCCCN1CCC(Cc2ccccc2)CC1)c1cc2c(Cl)nc3ccccc3c2s1` registered an IC50 of 0.74 µM.

As to `CCOC(=O)NC1=NC(C)(C)N(OCc2ccc(Cl)c(Cl)c2)C(NC(=O)OCC)=N1`, the IC50 was determined as 0.28 µM.

For `CC1(C)N=C(N)N=C(N)N1OCCCOc1cccc(C(=O)O)c1`, the IC50 came out at 0.04 µM.

For `CCOc1cc(C(=O)Nc2ccc(-c3nc4ccccc4[nH]3)cc2)cc(OCC)c1OCC`, the IC50 is 0.23 µM.

`Cc1ccc(Nc2nc(NN=Cc3cccc([N+](=O)[O-])c3)nc(Nc3ccccc3)n2)c(C)c1` showed an IC50 of 0.63 µM.

In turn, `O=C(Nc1cccc(CN2CCN(Cc3ccc(O)cc3)CC2)c1)c1cc2ccccc2o1` registered an IC50 of 1.18 µM.

`CSc1ccc2nccc(Nc3ccc(Oc4ccccc4)cc3)c2c1` showed an IC50 of 0.87 µM.

Compound `CC(C)(C)C/C=C\c1ccc(C(=O)NCC2CC2)cc1` returned an IC50 of 0.85 µM.

In turn, `COc1ccc2nccc([C@@H](O)CNCCCN(C)CCOc3cc(F)cc(F)c3)c2c1` gave a 50% inhibitory concentration (IC50) of 0.79 µM.

As to `Cc1cc(NN=Cc2ccc(Cl)cc2)c2ccccc2n1`, the concentration for half-maximal inhibition (IC50) turned out to be 0.79 µM.

`COc1ccc2nc(C)cc(NN=Cc3ccc(F)cc3)c2c1`: the IC50 was 0.19 µM.

For `Nc1n[nH]c(-c2ccccc2Nc2ccnc3cc(-c4nccs4)ccc23)n1`, the half-maximal inhibitory concentration (IC50) was determined as 1.12 µM.

For the compound `CN(C)CC(=O)Nc1ccc(Nc2nccc(NCC(O)c3ccccc3)n2)cc1` (stereo not drawn), the IC50 is 0.97 µM.

The compound `Cc1ccc(C2(C)CN(CCCOc3cccc(-c4ccc(C(=O)NC(C)C)cc4)c3)CCO2)cc1` (stereo not drawn) displayed an IC50 of 0.96 µM.

Consider `OC(CNCc1ccccc1Oc1ccccc1)c1cccc(C(F)(F)F)c1` (stereo not drawn), for which the IC50 was determined as 0.71 µM.

`N=C(N)c1ccc2nc(SCc3ccccc3)[nH]c2c1` displayed an IC50 of 0.69 µM.

`Cc1cccc2[nH]c(-c3ccc(-c4ccc(CNCCNC(=O)c5ccnn5C)cc4)cc3)nc12` returned an IC50 of 0.48 µM.

With `Cc1[nH]c(C)c(-c2csc3ccccc23)c(=O)c1Cl`, the IC50 was 1.02 µM.

With `CN1CC=C(c2c[nH]c3ccc(Sc4ccccc4)cc23)CC1`, the IC50 came to 0.36 µM.

In turn, `O=C1CSc2ccc(CNC3CCN(CCc4c(Cl)cnc5ccc(Cl)cc45)CC3)nc2N1` returned a half-maximal inhibitory concentration (IC50) of 0.23 µM.

Regarding `CN1CCN(CCCNCc2ccccc2-c2cccc(CNCc3ccc4c(c3)OCO4)c2)CC1`, the half-inhibitory concentration (IC50) stood at 0.79 µM.

In turn, `COc1ccc2nccc([C@@H](O)CN3CCC(NC(=O)C(c4ccccc4C)N4CCC(Cc5ccccc5)CC4)CC3)c2c1` (stereo partly drawn) came in with an IC50 of 0.26 µM.

As to `C/C=C/COc1ccc2ccccc2c1CNCCCCCCCCNCc1c(OC/C=C/C)ccc2ccccc12`, the IC50 was 0.91 µM.

Consider `CC(C)(C)c1ccc(N2C(N)=NC(N)=NC2(C)C)cc1Cl`, for which the IC50 amounted to 0.01 µM.

`CCCCCCCC1CC(CC(=O)Nc2ccnc3ccc(OC)cc23)CN1` (stereo not drawn): the IC50 stood at 0.51 µM.

Take `Cc1ccc(CNC(=O)c2cnc(N3CCN(c4ccncc4)CC3)c(Cl)c2)cc1`: the IC50 was found to be 1.29 µM.

Compound `Oc1ccc(CCNc2nc(NCCCOc3cccc(CN4CCCCC4)c3Cl)nc(N3CCNCC3)n2)cc1` registered an IC50 of 1.37 µM.

As to `Cc1cc(N(C)C2CCN(C)C2)nc(Nc2ccccc2Cl)n1` (stereo not drawn), the IC50 was 0.75 µM.
